This is an account of results in US12318435B2, “Recombinant protein produced from cholinesterase gene derived from Pseudomonas aeruginosa and the composition comprising the same for treating or preventing a neurological disease” (priority 2019, dated 2025).

Format in all cases: in vivo
One assay has as its system ICR mice. Description: Survival rate in pesticide-exposed animal model. The conditions noted are these: female ICR mice, intraperitoneal; 250 μg NP protein, 30 μg carbofuran, 9 mg trichlorfon; NP 40 mins before pesticide; survival observed for 30 mins. The protocol:
In order to determine the survival rate of the inventive NP protein on pesticide-exposed animal model, following test was performed by the procedure disclosed in the literature (Gupta, Ramesh C., ‘Carbofuran toxicity’, Journal of Toxicology and Environmental Health, Part A, 43:4, pp 383-418, 1994).
(§1) Specific pathogen-free female ICR mice (about 20 g, aged 6 weeks) were purchased from ORIENT Co. (Seoul, Korea) and acclimated with the experimental environment for 1 week.
250 μg of NP protein was intraperitoneally injected to the mice as a test sample group to observe the behavior of the mice for 40 mins and 30 μg of carbofuran and 9 mg of trichlorfon were intraperitoneally injected to the mice to observe the survival rate of the mice for 30 mins.
The group intraperitoneally injected with only 30 μg of carbofuran or 9 mg of trichlorfon were used as positive control groups to observe the survival rate of the mice and the group intraperitoneally injected with only distilled water […] was used as a negative control group to observe the survival rate of the mice.

Another assay relates to ACHE activity. Description: Serum ACHE activity of pesticide-exposed mice. The conditions noted are these: serum of the mice of Experimental Example 2; for ACHE activity, Concentration (mU/mL): 25° C., 570 nm. The protocol: as §1
(§2) The mice used in Experimental Example 2 intraperitoneally injected with […] of NP protein as a test sample group, were killed with carbon dioxide gas (Shinyang Oxygen Industry, Korea) and the blood was collected from the heart to isolate the serum.
30 mins after the reaction, the absorbance of the reaction solution was determined at every 1 min at 570 nm using by spectrometer (Multiskan Go., Thermo Scientific) and the determined level was calculated according to following Math. […] [Math. 2] 4-2. Test Result

Another assay has as its system choline. Description: Blood level of choline in pesticide-exposed animal model. The following applies: serum of the mice of Experimental Example 2; for Level of blood acetylcholine, Concentration: absorbance 570 nm. How it is done: In order to determine the effect on the blood level of choline of the inventive NP protein in pesticide-exposed animal model, following test was performed by the procedure disclosed in the literature (Choline/Acetylcholine Quantification Colorimetric/Fluorometric Kit, Biovision incorporated 155 S Milpitas Boulevard, Milpitas, Calif. 95035 USA).
as §1, §2
The choline level of blood serum was determined Choline/Acetylcholine Quantification Colorimetric/Fluorometric Kit (Cat. No. K615-100, Biovision).
1 μL of serum was added to 49 μL of buffer solution in the kit and the reaction mixture containing […] of buffer solution, 2 μL of choline probe, 2 μL of ACHE and 2 μL of enzyme mixture solution was added thereto to react together in the shadow at 25° C. for 30 mins.
30 mins after the reaction, the absorbance of the reaction solution was determined at 570 nm using by spectrometer (Multiskan Go., Thermo Scientific) and the determined level was transformed into absolute value by comparing with the level of standard curve.
The level of choline was calculated according to following Math. 1 Blood Level of choline(nmole/mL or micromole)=(calculated level of choline through standard curve)/(the amount of samples in each well;mL). [Math. 1] 3-2. Test Result

Each structure is given as a SMILES string.

On to `CNC(=O)Oc1cccc2c1OC(C)(C)C2` [Carbofuran], for which the “Survival rate (%)” value in the assay with ICR mice is listed as 0%. For the same compound, in the assay on ACHE activity, the “ACHE activity compared with negative control group (in words)” value is on record as “decreased ACHE activity” and the “ACHE activity, Concentration (mU/mL)” value turned out to be 463.8 mU/mL. Also, in the assay with choline, the “amount of acetylcholine (in words)” value was “sharply increased amount of acetylcholine” and the “Level of blood acetylcholine, Concentration” value is 1.8 nmol/mL.
In the same order, the values of `COP(=O)(OC)C(O)C(Cl)(Cl)Cl` (stereo not shown) [Trichlorfon, trichlorfon] are 60%, “decreased ACHE activity”, 117.7 mU/mL, “sharply increased amount of acetylcholine” and 1.4 nmol/mL.
